Reference: ChEMBL document CHEMBL1121606, “Synthesis and beta-adrenergic blocking activity of new aliphatic oxime ethers” (J Med Chem, 1980)
Active and inactive are the calls of the source. No cut-off for these calls is given here.

How the values were obtained:
Type in all cases: functional, organism-based
Cavia porcellus [1] = species: Cavia porcellus; test: Antagonism of the isoprenaline-induced positive chronotropic effect on the atria of guinea pig; Inactive at 1e-4 mol/L
Cavia porcellus [2] = species: Cavia porcellus; test: Antagonism of the isoprenaline-induced positive chronotropic effect on the atria of guinea pig at 3e-4 M/l; conditions: read-out: pA2 (converted)
Cavia porcellus [3] = species: Cavia porcellus; test: The apparent pA2 value was measured for beta-2-adrenergic blocking activity on the trachea of guinea pig; Inactive at 3e-4

**Q.** How did the pA2 (Cavia porcellus [1]) turn out when CC(C)(C)NCC(O)CO (stereo not drawn) was run?
**A.** The pA2 was “inactive”.

**Q.** How did the Kb (Cavia porcellus [2]) turn out when CC(C)NCC(O)CNC(C)C was run?
**A.** The Kb was 200 µM.

**Q.** And the pA2 (Cavia porcellus [3])?
**A.** Its pA2 is “inactive”.
